The values below come from ChEMBL document CHEMBL1130478, “Mono and bis double ester prodrugs of novel aminomethyl-THF 1-methylcarbapenems” (Bioorg Med Chem Lett, 1997).

What all share (format): functional
The test system of assay [1] is Mus musculus. Put plainly: Antibacterial activity against Escherichia coli (311) infection in mice after single subcutaneous dose, activity expressed as ED50. Particulars: sc.
Assay [2] relates to Mus musculus. Put plainly: Antibacterial activity against Escherichia coli (311) infection in mice after single oral dose, activity expressed as ED50.
Assay [3] addresses T1, Dipeptidase 1 (Sus scrofa) (UniProt P22412).
T1 sequence (whole entry): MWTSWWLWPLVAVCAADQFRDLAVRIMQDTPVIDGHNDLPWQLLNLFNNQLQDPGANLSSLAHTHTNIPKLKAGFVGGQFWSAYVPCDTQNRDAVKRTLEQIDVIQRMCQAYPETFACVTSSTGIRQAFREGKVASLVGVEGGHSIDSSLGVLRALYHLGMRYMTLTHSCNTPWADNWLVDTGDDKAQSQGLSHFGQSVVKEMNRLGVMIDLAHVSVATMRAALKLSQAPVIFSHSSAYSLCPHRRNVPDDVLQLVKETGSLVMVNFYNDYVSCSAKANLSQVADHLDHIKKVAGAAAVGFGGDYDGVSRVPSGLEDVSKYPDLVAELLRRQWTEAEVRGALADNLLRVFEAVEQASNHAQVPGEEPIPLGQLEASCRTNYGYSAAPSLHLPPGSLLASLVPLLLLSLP
Put plainly: Relative hydrolysis by hog Dehydropeptidase.

`C[C@H]1C(SC2COC(CN)C2)=C(C(=O)O)N2C(=O)[C@H]([C@@H](C)O)C12` (some centres undefined): the ED50 is 0.28 mg/kg in the assay on Mus musculus [1] and 3.5 mg/kg with Mus musculus [2].

With `CC(C)C(=O)OCOC(=O)C1=C(SC2CCOC2CN)[C@H](C)C2[C@@H]([C@@H](C)O)C(=O)N12.CCN(C(C)C)C(C)C` (some centres undefined), the results for the ED50 in the assay on Mus musculus [1] and in the assay with Mus musculus [2] were 0.18 mg/kg and 2.3 mg/kg, respectively.

On to `CC(C)OC(=O)OC(C)OC(=O)C1=C(S[C@@H]2CCO[C@@H]2CNC(=O)OCOC(=O)C(C)C)[C@H](C)C2[C@@H]([C@@H](C)O)C(=O)N12` (some centres undefined), for which the ED50 was determined as 2.1 mg/kg in the assay with Mus musculus [1] and 1.4 mg/kg in the assay on Mus musculus [2].

For the compound `CCOC(=O)OCOC(=O)C1=C(S[C@@H]2CCO[C@@H]2CNC(=O)OC(C)OC(=O)C(C)C)[C@H](C)C2[C@@H]([C@@H](C)O)C(=O)N12` (some centres undefined), the ED50 with Mus musculus [1] is 0.45 mg/kg; with Mus musculus [2], 0.72 mg/kg.

Regarding `CCN(C(C)C)C(C)C.C[C@H]1C(S[C@@H]2CCO[C@@H]2CNC(=O)OCOC(=O)C(C)(C)C)=C(C(=O)O)N2C(=O)[C@H]([C@@H](C)O)C12` (some centres undefined), the values for the ED50 with Mus musculus [1] and in the assay with Mus musculus [2] were 0.65 mg/kg and 2.9 mg/kg, respectively.

In the case of `CC(=O)OC(C)OC(=O)NC[C@H]1OCC[C@H]1SC1=C(C(=O)O)N2C(=O)[C@H]([C@@H](C)O)C2[C@H]1C.CCN(C(C)C)C(C)C` (some centres undefined), the ED50 in the assay on Mus musculus [1] amounted to 0.62 mg/kg; with Mus musculus [2], 4.5 mg/kg.

For the compound `CCOC(=O)OCOC(=O)NCC1OCCC1SC1=C(C(=O)OCOC(=O)C(C)C)N2C(=O)[C@H]([C@@H](C)O)C2[C@H]1C` (some centres undefined), the figures for the ED50 in the assay on Mus musculus [1] and in the assay on Mus musculus [2] were 0.37 mg/kg and 0.87 mg/kg, respectively.

Turning to `CC(OC(=O)OC1=CCCCC1)OC(=O)C1=C(S[C@@H]2CCO[C@@H]2CN)[C@H](C)C2[C@@H]([C@@H](C)O)C(=O)N12.Cl` (some centres undefined), the ED50 in the assay on Mus musculus [1] was 1.6 mg/kg; in the assay on Mus musculus [2], > 3.2 mg/kg.

`CC(C)C(=O)OCOC(=O)NC[C@H]1OCC[C@H]1SC1=C(C(=O)OCOC(=O)C(C)(C)C)N2C(=O)[C@H]([C@@H](C)O)C2[C@H]1C` (some centres undefined): the values for the ED50 in the assay on Mus musculus [1] and with Mus musculus [2] were 1.9 mg/kg and 1.6 mg/kg, respectively.

For the compound `CC(=O)OC(C)OC(=O)NC[C@H]1OCC[C@H]1SC1=C(C(=O)O)N2C(=O)[C@H]([C@@H](C)O)C2[C@H]1C` (some centres undefined), in assay [3], the Relative hydrolysis worked out at 6.

Broadly, the ED50 is the dose at which the effect has come halfway, by size or by number of responders.
